Measurements as given in ChEMBL document CHEMBL5223073, “Andrographolide suppresses cisplatin-induced endothelial hyperpermeability through activation of PI3K/Akt and eNOS -derived nitric oxide” (Bioorg Med Chem, 2020).
The source made the active and inactive calls.

How the values were obtained:
[1] = target: Nuclear factor NF-kappa-B complex (Homo sapiens) (UniProt Q00653+P19838+Q04206); assay: Inhibition of cisplatin-induced NF-kappaB activation in HUVEC cell nuclear extract assessed as reduction in NF-kappaB-DNA binding activity at 100 uM incubated for 1 hr by electrophoretic mobility shift assay; type: subcellular; conditions: Nucleus
[2] = target: T1, NF-kappa-B inhibitor alpha (Homo sapiens) (UniProt P25963); assay: Inhibition of cisplatin-induced phosphorylation of IkappaBalpha at Ser32/36 residue in HUVEC cells at 100 uM incubated for 1 hr by Western blot analysis; type: cell-based
T1 sequence (whole entry): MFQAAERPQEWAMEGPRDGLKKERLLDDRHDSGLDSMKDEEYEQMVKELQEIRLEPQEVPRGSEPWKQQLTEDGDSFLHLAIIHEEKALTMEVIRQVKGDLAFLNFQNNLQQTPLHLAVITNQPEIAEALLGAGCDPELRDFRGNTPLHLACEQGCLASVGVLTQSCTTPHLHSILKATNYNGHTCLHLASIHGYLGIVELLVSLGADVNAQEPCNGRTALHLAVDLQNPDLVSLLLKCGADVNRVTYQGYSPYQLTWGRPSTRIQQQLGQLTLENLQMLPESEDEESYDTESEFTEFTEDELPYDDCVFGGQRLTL

[3] = target: Transcription factor p65 (Homo sapiens) (UniProt Q04206); assay: Inhibition of cisplatin-induced phosphorylation of p65 subunit at Ser536 residue in HUVEC cells at 100 uM incubated for 1 hr by Western blot analysis; type: cell-based
[4] = tested on: HUVEC; assay: Inhibition of cisplatin-induced PKCalpha translocation in HUVEC cells at 100 uM incubated for 15 mins in presence of cisplatin by Western blot analysis; type: functional, cell-based; conditions: Homo sapiens
[5] = tested on: HUVEC; assay: Inhibition of cisplatin-induced TRPC1 phosphorylation in [32P] orthophosphate labeled HUVEC cells at 100 uM incubated for 15 mins in presence of cisplatin by Western blot analysis; type: cell-based; conditions: Homo sapiens
[6] = tested on: HUVEC; assay: Inhibition of cisplatin-induced store operated Ca2+ release in HUVEC cells at 100 uM preincubated with compound followed by cisplatin stimulation by Fura-2 AM staining based calcium influx assay; type: functional, cell-based; conditions: Homo sapiens
[7] = tested on: HUVEC; assay: Improvement in cisplatin-induced endothelial monolayer integrity in HUVEC cells assessed as increase in transendothelial electric resistance at 100 uM preincubated with compound followed by cisplatin stimulation and measured after 45 mins; type: functional, cell-based; conditions: Homo sapiens
[8] = tested on: HUVEC; assay: Inhibition of cisplatin-induced TRPC1 phosphorylation in [32P] orthophosphate labeled HUVEC cells at […] incubated for 15 mins in presence of cisplatin by Western blot analysis; type: cell-based; conditions: Homo sapiens

Transcription factor p65 (Homo sapiens), sequence (Q04206 whole entry): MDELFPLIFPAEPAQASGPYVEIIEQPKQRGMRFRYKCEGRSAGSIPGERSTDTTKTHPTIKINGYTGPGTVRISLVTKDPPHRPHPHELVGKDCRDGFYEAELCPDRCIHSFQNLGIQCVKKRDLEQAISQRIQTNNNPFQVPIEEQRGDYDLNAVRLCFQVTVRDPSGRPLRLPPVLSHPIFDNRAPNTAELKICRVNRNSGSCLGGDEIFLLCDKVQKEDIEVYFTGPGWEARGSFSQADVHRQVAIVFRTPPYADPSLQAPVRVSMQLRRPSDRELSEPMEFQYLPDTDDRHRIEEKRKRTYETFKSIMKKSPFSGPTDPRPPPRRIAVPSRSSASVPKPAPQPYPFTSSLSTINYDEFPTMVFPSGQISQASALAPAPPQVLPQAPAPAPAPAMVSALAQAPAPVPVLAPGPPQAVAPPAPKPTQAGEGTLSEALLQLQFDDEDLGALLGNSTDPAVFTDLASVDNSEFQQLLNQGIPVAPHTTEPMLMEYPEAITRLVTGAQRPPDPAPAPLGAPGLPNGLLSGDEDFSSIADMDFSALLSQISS
Nuclear factor NF-kappa-B complex (Homo sapiens), sequence (P19838 whole entry, looked up): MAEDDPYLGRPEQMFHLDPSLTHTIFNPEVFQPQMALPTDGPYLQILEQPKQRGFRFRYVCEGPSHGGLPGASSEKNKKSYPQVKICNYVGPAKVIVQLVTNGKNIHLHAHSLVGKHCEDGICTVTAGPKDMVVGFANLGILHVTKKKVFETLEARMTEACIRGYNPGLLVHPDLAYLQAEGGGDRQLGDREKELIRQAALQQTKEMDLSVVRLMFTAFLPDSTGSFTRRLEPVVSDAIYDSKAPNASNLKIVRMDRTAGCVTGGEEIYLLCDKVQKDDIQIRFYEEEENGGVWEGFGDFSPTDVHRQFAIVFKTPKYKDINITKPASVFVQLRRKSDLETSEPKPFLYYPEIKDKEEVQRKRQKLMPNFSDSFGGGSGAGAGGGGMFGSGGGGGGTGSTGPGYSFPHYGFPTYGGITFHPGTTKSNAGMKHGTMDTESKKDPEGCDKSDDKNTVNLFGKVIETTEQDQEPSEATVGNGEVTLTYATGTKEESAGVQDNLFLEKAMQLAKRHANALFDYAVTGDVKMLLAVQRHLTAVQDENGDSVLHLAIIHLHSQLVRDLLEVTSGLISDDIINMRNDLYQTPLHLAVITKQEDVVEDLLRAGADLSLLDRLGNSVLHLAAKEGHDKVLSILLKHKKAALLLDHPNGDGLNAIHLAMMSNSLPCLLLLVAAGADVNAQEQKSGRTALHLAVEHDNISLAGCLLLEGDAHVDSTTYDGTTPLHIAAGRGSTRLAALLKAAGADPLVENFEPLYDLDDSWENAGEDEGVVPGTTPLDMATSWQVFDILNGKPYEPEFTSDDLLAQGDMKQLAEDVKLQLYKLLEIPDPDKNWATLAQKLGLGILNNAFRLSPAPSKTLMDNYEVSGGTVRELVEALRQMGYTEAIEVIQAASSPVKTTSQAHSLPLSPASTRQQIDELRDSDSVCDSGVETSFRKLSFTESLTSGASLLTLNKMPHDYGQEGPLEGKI
Nuclear factor NF-kappa-B complex (Homo sapiens), sequence (Q00653 whole entry, looked up): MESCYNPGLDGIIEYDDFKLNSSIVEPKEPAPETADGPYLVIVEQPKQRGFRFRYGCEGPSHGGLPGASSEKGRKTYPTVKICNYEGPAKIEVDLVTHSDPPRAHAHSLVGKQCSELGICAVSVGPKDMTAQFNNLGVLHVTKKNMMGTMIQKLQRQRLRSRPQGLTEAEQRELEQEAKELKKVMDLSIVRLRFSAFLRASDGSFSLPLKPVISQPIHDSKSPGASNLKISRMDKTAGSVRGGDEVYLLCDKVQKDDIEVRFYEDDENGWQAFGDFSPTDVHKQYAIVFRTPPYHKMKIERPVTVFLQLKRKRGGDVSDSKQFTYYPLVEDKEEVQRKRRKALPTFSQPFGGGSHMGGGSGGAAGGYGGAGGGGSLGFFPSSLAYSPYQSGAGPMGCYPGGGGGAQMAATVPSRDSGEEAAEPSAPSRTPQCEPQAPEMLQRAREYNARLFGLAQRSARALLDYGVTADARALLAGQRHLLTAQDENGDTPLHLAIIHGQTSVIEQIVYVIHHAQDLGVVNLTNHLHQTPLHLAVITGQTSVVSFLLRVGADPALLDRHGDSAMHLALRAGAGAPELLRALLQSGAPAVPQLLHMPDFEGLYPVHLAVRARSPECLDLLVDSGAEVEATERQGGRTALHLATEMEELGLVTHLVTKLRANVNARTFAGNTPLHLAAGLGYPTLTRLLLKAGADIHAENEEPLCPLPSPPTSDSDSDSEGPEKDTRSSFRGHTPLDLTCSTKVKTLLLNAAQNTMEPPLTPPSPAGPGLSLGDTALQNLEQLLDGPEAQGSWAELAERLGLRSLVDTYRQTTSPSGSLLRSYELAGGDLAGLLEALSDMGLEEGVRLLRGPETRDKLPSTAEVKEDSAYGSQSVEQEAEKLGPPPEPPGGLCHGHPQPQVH
Nuclear factor NF-kappa-B complex (Homo sapiens), sequence (Q04206 whole entry, looked up): as the sequence (Q04206 whole entry) above

CC(=O)N[C@@H](C(=O)O)C(C)(C)SN=O
active: inhibition [1] | inhibition [2] | inhibition [3] | inhibition [4] | inhibition [5] | inhibition [6] | Activity [7]

Cn1c2ccccc2c2c3c(c4c5ccccc5n(CCC#N)c4c21)CNC3=O
active: inhibition [8]
